Source: patent US6727237B2, “Inhibitors of bacterial NAD synthetase” (priority 1998, dated 2004)
Like-named read-outs stand apart in the source and are kept apart here.

Target: T1, bacterial NAD synthetase enzyme (Bacillus subtilis, UniProt P08164)
T1 sequence (P08164 2-272 limits assumed): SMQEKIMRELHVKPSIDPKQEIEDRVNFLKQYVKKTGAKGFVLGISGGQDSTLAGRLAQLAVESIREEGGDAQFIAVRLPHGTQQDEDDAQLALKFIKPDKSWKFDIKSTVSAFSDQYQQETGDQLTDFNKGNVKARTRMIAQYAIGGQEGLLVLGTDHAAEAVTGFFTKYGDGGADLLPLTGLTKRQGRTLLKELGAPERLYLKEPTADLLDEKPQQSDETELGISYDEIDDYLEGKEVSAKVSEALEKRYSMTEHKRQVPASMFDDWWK
Assay: biochemical
Assay type: biochemical

[1] = compound at 0.2 mM (Table 312A)
[2] = compound at 0.2 mM (Table 312B)

Row | Compound | % Inhibition [1] | further results
1 | O=C(O)c1ccc2[nH]c(CCCCC[n+]3cccc4ccccc43)cc2c1 [Compound 494] | 17.44% | –
2 | CCCCc1oc2ccccc2c1C(=O)c1ccc(OCCCCCCCCOC(=O)Cc2ccc([N+](C)(C)C)cc2)cc1 [Compound 1084] | – | IC50 (NAD synthetase enzyme inhibition, read-out: IC50 of Compounds): 12.5 µM; % Inhibition [2]: 106%
3 | CCCCc1ccc2[nH]c(CCCCCCCC[n+]3ccc4ccccc4c3)cc2c1 [Compound 533] | 24.68% | –
4 | c1ccc(-c2ccc3[nH]c(CCCCCCC[n+]4ccccc4)cc3c2)cc1 [Compound 328] | – | % Inhibition (compound at 0.1 mM (Table 314)): 47.85%
5 | C[N+](C)(C)c1ccc(CC(=O)OCCCCCCCCOc2cccc([N+](=O)[O-])c2)cc1 [Compound 1085] | – | IC50: 138 µM; inhibition at 200 µM: 87%
6 | O=[N+]([O-])c1cc([N+](=O)[O-])c2[nH]c(CCCCCCC[n+]3ccc4ccccc4c3)cc2c1 [Compound 526] | 42.77% | –
7 | CC(C)c1ccc2[nH]c(CCCCOC(=O)Cc3ccc[n+](C)c3)cc2c1 [Compound 934] | – | % Inhibition (compound at 0.25 mM): 98.5%
8 | O=[N+]([O-])c1ccc2[nH]c(CCCCC[n+]3ccccc3)cc2c1 [Compound 332] | – | % Inhibition (compound at 0.1 mM (Table 314)): 12.27%
9 | CC(=O)c1ccc2[nH]c(CCCCCCCCOC(=O)c3ccc([N+](C)(C)C)cc3)cc2c1 [Compound 894] | – | IC50: 50 µM; inhibition at 100 µM: 91.1%
10 | Fc1ccc2[nH]c(CCC[n+]3ccc4ccccc4c3)cc2c1 [Compound 558] | 1.27% | –
11 | C[N+](C)(C)c1ccc(C(=O)OCCCCCCCCc2cc3cc(C(=O)c4ccccc4)ccc3[nH]2)cc1 [Compound 897] | – | % Inhibition (compound at 0.25 mM): 50.9%
12 | FC(F)(F)c1ccc2cc(CCCCCCCC[n+]3cccc4ccccc43)[nH]c2c1 [Compound 401] | 14.26% | –
13 | COC(=O)c1ccc2[nH]c(CCCC[n+]3ccc4ccccc4c3)cc2c1 [Compound 595] | 17.94% | –
14 | COC(=O)c1ccc2[nH]c(CCCCCC[n+]3cccc4ccccc43)cc2c1 [Compound 489] | 5.87% | –
15 | CC(=O)c1ccc2[nH]c(CCCCCCCOC(=O)Cc3ccc[n+](C)c3)cc2c1 [Compound 938] | – | % Inhibition (compound at 0.25 mM): 98.8%
16 | Fc1cc(F)c2[nH]c(CCCC[n+]3ccc4ccccc4c3)cc2c1 [Compound 517] | 34.72% | –
17 | C[n+]1cccc(C(=O)OCCCCCCCCn2ccc3ccccc32)c1 [Compound 969] | 83.16% | –
18 | Fc1cc(F)c2[nH]c(CCCCC[n+]3cccc4ccccc43)cc2c1 [Compound 410] | 8.77% | –
19 | C[N+](C)(C)c1cccc(C(=O)OCCCCCCCCc2cc3cc(C(=O)c4ccccc4)ccc3[nH]2)c1 [Compound 882] | – | IC50: 90 µM; inhibition at 100 µM: 94.5%
20 | c1cc[n+](CCCCCCCCc2cc3ccccc3[nH]2)cc1 [Compound 287] | 16.01% | –
21 | C[n+]1cccc(C(=O)OCCCCCCn2ccc3ccccc32)c1 [Compound 967] | 19.51% | –
22 | O=C(OCCCCCCCc1cc2ccc(C(F)(F)F)cc2[nH]1)c1ccncc1 [Compound 697] | 4.28% | –

Row | Compound | % Inhibition [1] | further results
23 | FC(F)(F)c1ccc2cc(CCCCCCC[n+]3ccccc3)[nH]c2c1 [Compound 292] | 44.36% | –
24 | c1ccc(-c2ccc3[nH]c(CCCCCCC[n+]4ccc5ccccc5c4)cc3c2)cc1 [Compound 544] | 19.66% | –
25 | CC(=O)c1ccc2[nH]c(CCCCOC(=O)c3ccc[n+](C)c3)cc2c1 [Compound 922] | – | % Inhibition (compound at 0.25 mM): 87.4%
26 | c1ccc(-c2ccc3[nH]c(CCC[n+]4ccccc4)cc3c2)cc1 [Compound 324] | 34.99% | –
27 | CC(=O)c1ccc2[nH]c(CCCCCCCOC(=O)c3ccc(N(C)C)cc3)cc2c1 [Compound 637] | – | % Inhibition (compound at 0.1 mM (Table 314)): 4.42%
28 | O=[N+]([O-])c1cc([N+](=O)[O-])c2[nH]c(CCCC[n+]3ccccc3)cc2c1 [Compound 307] | 4.40% | –
29 | O=[N+]([O-])c1ccc2[nH]c(CCCCCC[n+]3cccc4ccccc43)cc2c1 [Compound 441] | 11.80% | –
30 | CC(=O)N1CCN(c2ccc(OCCCCCCCCOC(=O)Cc3ccc(N(C)C)cc3)cc2)CC1 [Compound 1025] | – | % Inhibition [2]: 15%
31 | CC(C)c1ccc2[nH]c(CCCCOC(=O)c3ccc[n+](C)c3)cc2c1 [Compound 919] | – | % Inhibition (compound at 0.25 mM): 90.2%
32 | c1ccc(Oc2ccc3[nH]c(CCCCCCCC[n+]4ccc5ccccc5c4)cc3c2)cc1 [Compound 569] | 34.84% | –
33 | c1ccc(-c2ccc3[nH]c(CCCCCCC[n+]4cccc5ccccc54)cc3c2)cc1 [Compound 436] | 11.57% | –
34 | O=[N+]([O-])c1cc([N+](=O)[O-])c2[nH]c(CCCCCCC[n+]3cccc4ccccc43)cc2c1 [Compound 418] | 5.95% | –
35 | CC(=O)c1ccc(OCCCCCCCCOC(=O)c2ccc[n+](C)c2)cc1 [compound 1058] | – | % Inhibition [2]: 18%
36 | O=C(c1ccccc1)c1ccc2[nH]c(CCCCCCC[n+]3ccccc3)cc2c1 [Compound 358] | 23.19% | –
37 | C[n+]1cccc(CC(=O)OCCCCCCCCc2cc3cc(C(=O)c4ccccc4)ccc3[nH]2)c1 [Compound 942] | – | IC50: 75 µM; inhibition at 100 µM: 97.8%
38 | COC(=O)c1ccc2[nH]c(CCC[n+]3ccc4ccccc4c3)cc2c1 [Compound 594] | 2.77% | –
39 | CC(C)c1ccc2[nH]c(CCCCCCCC[n+]3ccccc3)cc2c1 [Compound 323] | 28.08% | –
40 | O=C(O)c1ccc2[nH]c(CCCCCCC[n+]3cccc4ccccc43)cc2c1 [Compound 496] | 36.97% | –
41 | c1ccc(C(c2ccccc2)(c2ccccc2)c2ccc3[nH]c(CCCCCCC[n+]4cccc5ccccc54)cc3c2)cc1 [Compound 448] | 2.92% | –
42 | O=[N+]([O-])c1ccc2[nH]c(CCCCCCCC[n+]3ccc4ccccc4c3)cc2c1 [Compound 551] | 50.05% | –
43 | COc1ccc2c(ccn2CCCCCOC(=O)Cc2ccc([N+](C)(C)C)cc2)c1 [Compound 741] | 30.47% | –
44 | C[n+]1cccc(C(=O)OCCCOc2ccccc2C=CC(=O)c2ccccc2)c1 [compound 1066] | – | inhibition at 200 µM: 70%

Row | Compound | % Inhibition [1] | further results
45 | COC(=O)c1cc2ccccc2n1CCCCCCCOC(=O)c1ccc[n+](C)c1 [Compound 972] | – | IC50: 40 µM; inhibition at 100 µM: 96.8%
46 | C[N+](C)(C)c1ccc(CC(=O)OCCCCCCCCCn2ccc3ccccc32)cc1 [Compound 982] | – | IC50: 60 µM; inhibition at 200 µM: 93.7%
47 | FC(F)(F)c1ccc2[nH]c(CCCCCCCC[n+]3ccccc3)cc2c1 [Compound 365] | 16.45% | –
48 | O=C(c1ccccc1)c1ccc2[nH]c(CCCCCCCC[n+]3ccc4ccccc4c3)cc2c1 [Compound 575] | 42.01% | –
49 | CC(=O)c1ccc2[nH]c(CCCCOC(=O)c3cc[n+](C)cc3)cc2c1 [Compound 907] | – | % Inhibition (compound at 0.25 mM): 20.6%
50 | C[n+]1ccc(C(=O)OCCCCCCCCc2cc3ccc(C(F)(F)F)cc3[nH]2)cc1 [Compound 900] | – | % Inhibition (compound at 0.25 mM): 84.9%
51 | c1ccc(Oc2ccc3[nH]c(CCC[n+]4ccccc4)cc3c2)cc1 [Compound 348] | 44.42% | –
52 | C[N+](C)(C)c1ccc(C(=O)OCCCCCCCc2cc3cc(Oc4ccccc4)ccc3[nH]2)cc1 [Compound 887] | – | IC50: 25 µM
53 | CC(=O)c1ccc2[nH]c(CCCCCCC[n+]3ccc4ccccc4c3)cc2c1 [Compound 586] | 2.01% | –
54 | C[N+](C)(C)c1cccc(C(=O)OCCCCc2cc3cc(Oc4ccccc4)ccc3[nH]2)c1 [Compound 871] | – | % Inhibition (compound at 0.25 mM): 81.9%
55 | CC(C)c1ccc2[nH]c(CCCCCCC[n+]3cccc4ccccc43)cc2c1 [Compound 430] | 1.20% | –
56 | C[n+]1ccc(C(=O)OCCCCc2cc3ccc(C(F)(F)F)cc3[nH]2)cc1 [Compound 898] | – | % Inhibition (compound at 0.25 mM): 51.8%
57 | Fc1ccc2[nH]c(CCCC[n+]3ccc4ccccc4c3)cc2c1 [Compound 559] | 33.24% | –
58 | FC(F)(F)c1ccc2cc(CCCC[n+]3ccccc3)[nH]c2c1 [Compound 289] | 9.28% | –
59 | COC(=O)c1ccc2[nH]c(CCCCCCC[n+]3cccc4ccccc43)cc2c1 [Compound 490] | 2.96% | –
60 | c1ccc(Oc2ccc3[nH]c(CCCCCCC[n+]4ccccc4)cc3c2)cc1 [Compound 352] | – | % Inhibition (compound at 0.1 mM (Table 314)): 32.69%
61 | C[N+](C)(C)c1cccc(C(=O)OCCCCc2cc3ccc(C(F)(F)F)cc3[nH]2)c1 [Compound 868] | – | % Inhibition (compound at 0.25 mM): 13.5%
62 | O=C(OCCCCCCCCOc1ccc(N2C(=O)c3ccccc3C2=O)cc1)c1cccnc1 [Compound 1017] | – | % Inhibition [2]: 23%
63 | FC(F)(F)c1ccc2cc(CCCCCCCC[n+]3ccc4ccccc4c3)[nH]c2c1 [Compound 509] | 78.00% | –
64 | CN(C)c1ccc(CC(=O)OCCCCCCCCOc2ccccc2N2CCOCC2)cc1 [Compound 1047] | – | % Inhibition [2]: 45%
65 | CCCCc1ccc2[nH]c(CCCCC[n+]3ccccc3)cc2c1 [Compound 314] | – | % Inhibition (compound at 0.1 mM (Table 314)): 9.19%
